The target of one assay is T1, human CB2 receptors (Homo sapiens, UniProt P34972).
T1 construct: (cDNA clone) CNR0200000
The experiment in a line: cAMP assay in HEK-293 cells, hCB2 agonist. It is filed as cell-based. Summed up: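 HEK-293 cells stably expressing human CB2, suspended at 1,500,000 cells/mL in HBSS with 10 mM HEPES and 0.1% fatty-acid-free BSA, exposed to test compound plus forskolin (90 uM in the 3× compound solution) for 30 min at 37° C.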
(cAMP levels reflect the balance of adenylyl cyclase and phosphodiesterase activity.)

The target in a further assay is T2, human CB1 receptors (Homo sapiens, UniProt P21554).
T2 construct: (cDNA clone) CNR01L000
The experiment in a line: cAMP assay in HEK-293 cells, hCB1 agonist. It is filed as cell-based. Particulars: inhibition of forskolin-stimulated cAMP, HEK-293 cells; for EC50: read-out: hCB1 EC50 (cAMP ag). A digest of the protocol:
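Stable hCB1 HEK-293 cells suspended in HBSS with 10 mM HEPES and 0.1% fatty acid-free BSA, incubated 30 min at 37° C. with compound plus forskolin (90 uM in the 3× compound solution). Lysed cAMP measured by enzyme-fragment kit; EC50 = 50% inhibition of forskolin-stimulated cAMP (forskolin maximum = 100%), sigmoidal fit.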

The target of another assay is T3, human CB2 (hCB2) (Homo sapiens, UniProt P34972).
T3 construct: (cDNA clone) CNR0200000
The experiment in a line: 35S GTPγS binding assay, hCB2 agonist. Type of assay: biochemical. A digest of the protocol:
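Membranes (5 μg) from cells transfected with hCB2 cDNA in pcDNA3.1+ incubated with SPA beads, 0.1 nM [35S]GTPγS and 20 uM GDP in 50 mM HEPES pH 7.4, 100 mM NaCl, 5 mM MgCl2, 0.001% saponin, ± test compound. Incubation 90 min at room temperature; bound label read by scintillation counting.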

The structures appear in SMILES notation. Where two headings read alike, the source gives them in different places. A value given as a limit tells only on which side of the number the result lay.

Broadly, the EC50 is the concentration needed to bring the measured effect to its halfway point.

T2 sequence (P21554 whole entry): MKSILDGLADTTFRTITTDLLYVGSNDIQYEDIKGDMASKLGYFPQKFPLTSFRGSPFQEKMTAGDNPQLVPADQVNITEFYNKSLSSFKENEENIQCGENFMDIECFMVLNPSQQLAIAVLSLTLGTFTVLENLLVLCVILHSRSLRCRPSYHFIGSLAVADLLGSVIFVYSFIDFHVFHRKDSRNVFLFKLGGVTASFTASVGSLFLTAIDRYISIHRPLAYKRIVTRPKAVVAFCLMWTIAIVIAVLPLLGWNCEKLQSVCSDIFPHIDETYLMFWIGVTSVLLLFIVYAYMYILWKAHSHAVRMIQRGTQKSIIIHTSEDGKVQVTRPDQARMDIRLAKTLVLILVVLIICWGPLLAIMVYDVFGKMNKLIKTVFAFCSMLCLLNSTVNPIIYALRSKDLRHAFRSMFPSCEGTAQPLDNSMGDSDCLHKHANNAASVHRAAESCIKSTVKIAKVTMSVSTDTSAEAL
T3 sequence (P34972 whole entry): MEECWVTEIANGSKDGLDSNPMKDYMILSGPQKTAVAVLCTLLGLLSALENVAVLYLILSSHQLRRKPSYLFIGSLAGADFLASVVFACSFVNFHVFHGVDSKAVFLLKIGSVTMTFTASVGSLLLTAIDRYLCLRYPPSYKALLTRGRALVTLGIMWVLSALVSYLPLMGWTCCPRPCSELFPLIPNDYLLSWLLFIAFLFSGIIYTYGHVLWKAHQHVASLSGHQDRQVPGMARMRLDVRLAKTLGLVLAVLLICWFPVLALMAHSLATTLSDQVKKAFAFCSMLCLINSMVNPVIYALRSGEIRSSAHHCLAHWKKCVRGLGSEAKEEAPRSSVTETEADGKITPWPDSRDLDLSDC
T1 sequence (P34972 whole entry): as above

Regarding `COc1ccc(C(=S)c2cc3cc(C)n(CCN4CCOCC4)c3s2)cc1` [Compound 104, (4-methoxyphenyl)(5-methyl-6-(2-morpholinoethyl)-6H-thieno[2,3-b]pyrrol-2-yl)methanethione], the EC50 on human CB2 receptors and at human CB2 (hCB2) was 100 to 1000 nM each time. On human CB1 receptors, the “hCB1 EC50 (cAMP ag, nM)” value is “NS (NS means “Not Significant,” which means less than 30% agonist activity when compared to the positive control.)”.

In the case of `COCCn1c(C)cc2cc(C(=O)c3cccc(Cl)c3Cl)sc21` [Compound 21, (2,3-Dichlorophenyl)(6-(2-methoxyethyl)-5-methyl-6H-thieno[2,3-b]pyrrol-2-yl)methanone], the 50% effective concentration (EC50) on human CB2 receptors is less than 100 nM; at human CB1 receptors, 1000 to 10000 nM; at human CB2 (hCB2), less than 100 nM.

Turning to `COCCn1c(C)cc2cc(C(=O)c3ccc(OC)cc3)sc21` [Compound 49, (6-(2-Methoxyethyl)-5-methyl-6H-thieno[2,3-b]pyrrol-2-yl)(4-methoxyphenyl)methanone], the EC50 on human CB2 receptors and at human CB2 (hCB2) was 100 to 1000 nM each time. For the same molecule, the “hCB1 EC50 (cAMP ag, nM)” value at human CB1 receptors is listed as “NS (NS means “Not Significant,” which means less than 30% agonist activity when compared to the positive control.)”.

With `COc1ccc(C(=O)c2cc3cc(C)n(CCN4CCCC4)c3s2)c(F)c1` [Compound 92, (2-Fluoro-4-methoxyphenyl)(5-methyl-6-(2-(pyrrolidin-1-yl)ethyl)-6H-thieno[2,3-b]pyrrol-2-yl)methanone], the EC50 on human CB2 receptors is less than 100 nM; on human CB1 receptors, 1000 to 10000 nM; on human CB2 (hCB2), less than 100 nM.

`COc1ccc(C(=O)c2cc3cc(C)n(CCN4CCOCC4)c3s2)cc1Cl` [Compound 116, (3-Chloro-4-methoxyphenyl)(5-methyl-6-(2-morpholinoethyl)-6H-thieno[2,3-b]pyrrol-2-yl)methanone]: the EC50 at human CB2 receptors and on human CB2 (hCB2) was less than 100 nM in each case. Also, the “hCB1 EC50 (cAMP ag, nM)” value on human CB1 receptors is “NS (NS means “Not Significant,” which means less than 30% agonist activity when compared to the positive control.)”.

As to `COCCN(C)CCn1c(C)cc2cc(C(=O)c3ccc(OC)nc3)sc21` [Compound 157], the EC50 is less than 100 nM on human CB2 receptors and 1000 to 10000 nM at human CB2 (hCB2). For the same molecule, on human CB1 receptors, the “hCB1 EC50 (cAMP ag, nM)” value is on record as “NS (NS means “Not Significant,” which means less than 30% agonist activity when compared to the positive control.)”.

On to `CSc1ccc(C(=O)c2cc3cc(C)n(CCN4CCOCC4)c3s2)cc1` [Compound 115, (5-Methyl-6-(2-morpholinoethyl)-6H-thieno[2,3-b]pyrrol-2-yl)(4-(methylthio)phenyl)methanone], for which the EC50 at human CB2 receptors and at human CB2 (hCB2) was 100 to 1000 nM each time. Moreover, at human CB1 receptors, the “hCB1 EC50 (cAMP ag, nM)” value is reported as “NS (NS means “Not Significant,” which means less than 30% agonist activity when compared to the positive control.)”.

Take `Cc1ccc(C(=O)c2cc3cc(C)n(CCN4CCOCC4)c3s2)c(Cl)c1` [Compound 86, (2-Chloro-4-methylphenyl)(5-methyl-6-(2-morpholinoethyl)-6H-thieno[2,3-b]pyrrol-2-yl)methanone]: the EC50 at human CB2 receptors is less than 100 nM; at human CB1 receptors, 1000 to 10000 nM; at human CB2 (hCB2), less than 100 nM.

On to `COc1ccc(C(=O)c2cc3cc(C)n(Cc4ccncc4)c3s2)cc1` [Compound 112, (4-Methoxyphenyl)(5-methyl-6-(pyridin-4-ylmethyl)-6H-thieno[2,3-b]pyrrol-2-yl)methanone], for which the EC50 at human CB2 receptors and on human CB2 (hCB2) was 100 to 1000 nM throughout. In addition, the “hCB1 EC50 (cAMP ag, nM)” value at human CB1 receptors is listed as “NS (NS means “Not Significant,” which means less than 30% agonist activity when compared to the positive control.)”.

As to `COc1ccc(C(=O)c2cc3cc(C)n(CC(OC)OC)c3s2)cn1` [Compound 161, (6-(2,2-dimethoxyethyl)-5-methyl-6H-thieno[2,3-b]pyrrol-2-yl)(6-methoxypyridin-3-yl)methanone], the results for the EC50 at human CB2 receptors and on human CB2 (hCB2) were 100 to 1000 nM and 1000 to 10000 nM, respectively. Further, the “hCB1 EC50 (cAMP ag, nM)” value on human CB1 receptors is listed as “NS (NS means “Not Significant,” which means less than 30% agonist activity when compared to the positive control.)”.

On to `COc1ccc(C(=O)c2cc3cc(C)n(CC4CCOCC4)c3s2)cn1` [Compound 144, (6-methoxypyridin-3-yl)(5-methyl-6-((tetrahydro-2H-pyran-4-yl)methyl)-6H-thieno[2,3-b]pyrrol-2-yl)methanone], for which the EC50 at human CB2 receptors and on human CB2 (hCB2) was less than 100 nM each time. At human CB1 receptors, the “hCB1 EC50 (cAMP ag, nM)” value was “NS (NS means “Not Significant,” which means less than 30% agonist activity when compared to the positive control.)”.

Consider `CCOc1ccc(C(=O)c2cc3cc(C)n(CCN4CCOCC4)c3s2)cc1` [Compound 55, (4-Ethoxyphenyl)(5-methyl-6-(2-morpholinoethyl)-6H-thieno[2,3-b]pyrrol-2-yl)methanone], for which the results for the EC50 on human CB2 receptors, at human CB1 receptors and at human CB2 (hCB2) were less than 100 nM, 1000 to 10000 nM and less than 100 nM, respectively.

On to `CCOc1ccc(C(=O)c2cc3cc(C)n(CCN4CCOCC4)c3s2)cn1` [Compound 150, (6-Ethoxypyridin-3-yl)(5-methyl-6-(2-morpholinoethyl)-6H-thieno[2,3-b]pyrrol-2-yl)methanone], for which the concentration giving a half-maximal response (EC50) at human CB2 receptors is less than 100 nM; at human CB2 (hCB2) it was 100 to 1000 nM. For the same molecule, the “hCB1 EC50 (cAMP ag, nM)” value on human CB1 receptors was “NS (NS means “Not Significant,” which means less than 30% agonist activity when compared to the positive control.)”.

As for `Cc1cc2cc(C(=O)c3ccccc3Cl)sc2n1CCN1CCOCC1` [Compound 5, (2-Chlorophenyl)(5-methyl-6-(2-morpholinoethyl)-61-1-thieno[2,3-b]pyrrol-2-yl)methanone], the EC50 is less than 100 nM at human CB2 receptors, 100 to 1000 nM at human CB1 receptors and less than 100 nM on human CB2 (hCB2).

Consider `CNc1ccc(C(=O)c2cc3cc(C)n(CCN4CCOCC4)c3s2)cc1` [Compound 134, (5-methyl-6-(2-morpholinoethyl)-6H-thieno[2,3-b]pyrrol-2-yl)(4-(methylamino)phenyl)methanone], for which the EC50 on human CB2 receptors is less than 100 nM; at human CB2 (hCB2), 100 to 1000 nM. Besides, the “hCB1 EC50 (cAMP ag, nM)” value at human CB1 receptors was “NS (NS means “Not Significant,” which means less than 30% agonist activity when compared to the positive control.)”.

`COc1ccc(C(C)(O)c2cc3cc(C)n(CCN4CCOCC4)c3s2)cc1` (stereo not drawn) [Compound 101, 1-(4-methoxyphenyl)-1-(5-methyl-6-(2-morpholinoethyl)-6H-thieno[2,3-b]pyrrol-2-yl)ethanol]: the EC50 at human CB2 receptors (inhibition of forskolin-stimulated cAMP, HEK-293 cells, read-out: hCB2 EC50 (cAMP ag)) was less than 100 nM; at human CB2 (hCB2) (GTPγS agonist, HEK-293 membranes, read-out: hCB2 EC50 (GTPyS ag)), less than 100 nM. The “hCB1 EC50 (cAMP ag, nM)” value at human CB1 receptors is on record as “NS (NS means “Not Significant,” which means less than 30% agonist activity when compared to the positive control.)”.

Take `Cc1cc2cc(C(=O)c3ccc(O)cc3F)sc2n1CCN1CCOCC1` [Compound 165, (2-fluoro-4-hydroxyphenyl)(5-methyl-6-(2-morpholinoethyl)-6H-thieno[2,3-b]pyrrol-2-yl)methanone]: the EC50 on human CB2 receptors was less than 100 nM; on human CB1 receptors it was 100 to 1000 nM; on human CB2 (hCB2), 100 to 1000 nM.

For the molecule `COc1ccc(C(=O)c2cc3cc(C)n(CCN4CCOCC4)c3s2)nc1` [Compound 131, (5-methoxypyridin-2-yl)(5-methyl-6-(2-morpholinoethyl)-6H-thieno[2,3-b]pyrrol-2-yl)methanone], the EC50 on human CB2 receptors and on human CB2 (hCB2) was less than 100 nM each time. The “hCB1 EC50 (cAMP ag, nM)” value at human CB1 receptors is “NS (NS means “Not Significant,” which means less than 30% agonist activity when compared to the positive control.)”.

For the origin of these results see patent US20130029970A1 (priority 2009, published 2013).
